The results in this text go back to US6620811B2, “Isonicotin- and nicotinamide derivatives of benzothiazoles” (Hoffmann-La Roche Inc., priority 2001, dated 2003).

For the first test, the target named is T1, human adenosine A2A receptor (Homo sapiens, UniProt P29274).
T1 construct: expressed in transfected cells; host or cells: CHO cells, semliki forest virus expression system; membrane preparation
T1 sequence (P29274 whole entry): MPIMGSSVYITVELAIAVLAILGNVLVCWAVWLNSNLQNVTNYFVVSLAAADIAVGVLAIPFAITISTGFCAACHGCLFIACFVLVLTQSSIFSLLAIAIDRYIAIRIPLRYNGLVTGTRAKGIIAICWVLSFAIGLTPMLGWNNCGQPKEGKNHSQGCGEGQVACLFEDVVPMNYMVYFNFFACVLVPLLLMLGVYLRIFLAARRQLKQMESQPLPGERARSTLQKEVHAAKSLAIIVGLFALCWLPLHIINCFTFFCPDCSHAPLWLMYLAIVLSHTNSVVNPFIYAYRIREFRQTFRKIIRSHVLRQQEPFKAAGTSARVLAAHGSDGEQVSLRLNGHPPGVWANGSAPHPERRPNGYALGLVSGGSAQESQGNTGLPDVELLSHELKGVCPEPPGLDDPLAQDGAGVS
The test can be described thus: Human adenosine A2A receptor [3H]-SCH-583261 binding assay (SPA, CHO cell membranes). The following applies: [3H]-SCH-583261 1 nM; membranes of CHO cells expressing the recombinant receptor; Ki by Cheng-Prussoff equation. Here is the method:
Human Adenosine A2A Receptor
The human adenosine A2A receptor was recombinantly expressed in chinese hamster ovary (CHO) cells using the semliki forest virus expression system. Cells were harvested, washed twice by centrifugation, homogenised and again washed by centrifugation. The final washed membrane pellet was suspended in a Tris (50 mM) buffer containing 120 mM NaCl, 5 mM KCl, 2 mM CaCl2 and 10 mM MgCl2 (pH 7.4) (buffer A). The [^3H]-SCH-583261 (Dionisotti et al., 1997, Br J Pharmacol 121, 353; 1 nM) binding assay was carried out in 96-well plates in the presence of 2.5 μg of membrane protein, 0.5 mg of Ysi-poly-1-lysine SPA beads and 0.1 U adenosine deaminiase in a final volume of 200 μl of buffer A. Non-specific binding was defined using xainthine amine congener (XAC; 2 μM). Compounds were tested at 10 concentrations from 10 μM-0.3 nM. All assays were conducted in duplicate and repeated at least two times. Assay plates were incubated for 1 hour at room temperature before centrifugation and then bound ligand determined using a Packard Topcount scintillation counter. IC50 values were calculated using a non-linear curve fitting program and Ki values calculated using the Cheng-Prussoff equation.
`COc1ccc(N2CCCCC2)c2sc(NC(=O)c3ccnc(CN4CCCC4)c3)nc12` [Example 70, N-(4-Methoxy-7-piperidin-1-yl-benzothiazol-2-yl)-2-pyrrolidin-1-yl-methyl-isonicotinamide]: the “hA2 (pKi)” value turned out to be 8.9.

As for `COc1ccc(N2CCCCC2)c2sc(NC(=O)c3ccnc(CN4CCOCC4)c3)nc12` [Example 71, N-(4-Methoxy-7-piperidin-1-yl-benzothiazol-2-yl)-2-morpholin-4-yl-methyl-isonicotinamide], the “hA2 (pKi)” value worked out at 8.7.

Staying with this test, now noted: [3H]-SCH-583261 1 nM; membranes of CHO cells expressing the recombinant receptor; Ki by Cheng-Prussoff equation; read-out: hA2 (pKi) (converted).
As for `COCCOc1cc(C(=O)Nc2nc3c(OC)ccc(N4CCOCC4)c3s2)ccn1` [Example 1, 2-(2-Methoxy-ethoxy)-N-(4-methoxy-7-morpholin-4-yl-benzothiazol-2-yl)-isonicotinamide], the Ki is 3.16 nM.

As for `CCOc1cc(C(=O)Nc2nc3c(OC)ccc(N4CCOCC4)c3s2)ccn1` [Example 3, 2-Ethoxy-N-(4-methoxy-7-morpholin-4-yl-benzothiazol-2-yl)-isonicotinamide], the Ki was 3.09 nM.

Take `COc1ccc(N2CCOCC2)c2sc(NC(=O)c3ccnc(OCc4ccccc4)c3)nc12` [Example 4, 2-Benzyloxy-N-(4-methoxy-7-morpholin-4-yl-benzothiazol-2-yl)-isonicotinamide]: the Ki was 2.63 nM.

Take `COc1cc(C(=O)Nc2nc3c(OC)ccc(N4CCOCC4)c3s2)ccn1` [Example 5, 2-Methoxy-N-(4-methoxy-7-morpholin-4-yl-benzothiazol-2-yl)-isonicotinamide]: the Ki was 2.63 nM.

In the case of `COc1ccc(N2CCOCC2)c2sc(NC(=O)c3ccnc(OCc4ccccn4)c3)nc12` [Example 6, N-(4-Methoxy-7-morpholin-4-yl-benzothiazol-2-yl)-2-(pyridin-2-ylmethoxy)-isonicotinamide], the Ki was 1.15 nM.

Consider `COc1ccc(N2CCOCC2)c2sc(NC(=O)c3ccnc(NCCc4ccccn4)c3)nc12` [Example 8, N-(4-Methoxy-7-morpholin-4-yl-benzothiazol-2-yl)-2-(2-pyridin-2-yl-ethylamino)-isonicotinamide], for which the Ki is 1.78 nM.

`COc1ccc(N2CCOCC2)c2sc(NC(=O)c3ccnc(N4CCN(C)CC4)c3)nc12` [Example 10, N-(4-Methoxy-7-morpholin-4-yl-benzothiazol-2-yl)-2-(4-methyl-piperazin-1-yl)-isonicotinamide]: the Ki was 0.724 nM.

Turning to `COc1ccc(N2CCOCC2)c2sc(NC(=O)c3ccnc(NCc4ccccn4)c3)nc12` [Example 13, N-(4-Methoxy-7-morpholin-4-yl-benzothiazol-2-yl)-2-[(pyridin-2-ylmethyl)-amino]-isonicotinamide], the Ki is 1.55 nM.

For the molecule `COc1ccc(N2CCOCC2)c2sc(NC(=O)c3ccnc(NCCNC(C)=O)c3)nc12` [Example 15, 2-(2-Acetylamino-ethylamino)-N-(4-methoxy-7-morpholin-4-yl-benzothiazol-2-yl)-isonicotinamide], the Ki is 1.91 nM.

Consider `COc1ccc(N2CCOCC2)c2sc(NC(=O)c3ccnc(OCCN4CCCC4=O)c3)nc12` [Example 17, N-(4-Methoxy-7-morpholin-4-yl-benzothiazol-2-yl)-2-[2-(2-oxo-pyrrolidin-1-yl)-ethoxy]-isonicotinamide], for which the Ki is 2.34 nM.

Turning to `COc1ccc(N2CCOCC2)c2sc(NC(=O)c3ccnc(NCCN4CCOCC4)c3)nc12` [Example 18, N-(4-Methoxy-7-morpholin-4-yl-benzothiazol-2-yl)-2-(2-morpholin-4-yl-ethylamino)-isonicotinamide], the Ki was 0.617 nM.

`COc1ccc(N2CCOCC2)c2sc(NC(=O)c3ccnc(C4CCCCC4)c3)nc12` [Example 24, 2-Cyclohexyl-N-(4-methoxy-7-morpholin-4-yl-benzothiazol-2-yl)-isonicotinamide]: the Ki is 2.24 nM.

As for `COc1ccc(N2CCOCC2)c2sc(NC(=O)c3ccnc(N4CCC4)c3)nc12` [Example 26, 2-Azetidin-1-yl-N-(4-methoxy-7-morpholin-4-yl-benzothiazol-2-yl)-isonicotinamide], the Ki is 0.955 nM.

For the molecule `COc1ccc(N2CCOCC2)c2sc(NC(=O)c3ccnc(N4C[C@@H]5C[C@H]4CO5)c3)nc12` [Example 31, N-(4-Methoxy-7-morpholin-4-yl-benzothiazol-2-yl)-2-{(1S,4S)-2-oxa-5-aza-bicyclo[2.2.1]hept-5-yl}-isonicotinamide], the Ki was 1 nM.

As for `COc1ccc(C(=O)Nc2nc3c(OC)ccc(N4CCOCC4)c3s2)cn1` [Example 35, 6-Methoxy-N-(4-methoxy-7-morpholin-4-yl-benzothiazol-2-yl)-nicotinamide], the Ki was 2 nM.

For `COc1ccc(N2CCOCC2)c2sc(NC(=O)c3ccc(NCc4ccccn4)nc3)nc12` [Example 40, N-(4-Methoxy-7-morpholin-4-yl-benzothiazol-2-yl)-6-[(pyridin-2-ylmethyl)-amino]-nicotinamide], the Ki is 1.02 nM.

With `COc1ccc(N2CCOCC2)c2sc(NC(=O)c3ccc(OC(C)C)nc3)nc12` [Example 44, 6-Isopropoxy-N-(4-methoxy-7-morpholin-4-yl-benzothiazol-2-yl)-nicotinamide], the Ki is 3.02 nM.

For `COCCNCc1cc(C(=O)Nc2nc3c(OC)ccc(N4CCOCC4)c3s2)ccn1` [Example 47, 2-[(2-Methoxy-ethylamino)-methyl]-N-(4-methoxy-7-morpholin-4-yl-benzothiazol-2-yl)-isonicotinamide], the Ki was 2.51 nM.

Consider `CCCCNCc1cc(C(=O)Nc2nc3c(OC)ccc(N4CCOCC4)c3s2)ccn1` [Example 52, 2-Butylaminomethyl-N-(4-methoxy-7-morpholin-4-yl-benzothiazol-2-yl)-isonicotinamide], for which the Ki was 1.58 nM.

With `COc1ccc(N2CCOCC2)c2sc(NC(=O)c3ccnc(CN4CCCC4)c3)nc12` [Example 54, N-(4-Methoxy-7-morpholin-4-yl-benzothiazol-2-yl)-2-pyrrolidin-1-ylmethyl-isonicotinamide], the Ki was 2 nM.

As to `COc1ccc(N2CCOCC2)c2sc(NC(=O)c3ccnc(CN4CCOCC4)c3)nc12` [Example 56, N-(4-Methoxy-7-morpholin-4-yl-benzothiazol-2-yl)-2-morpholin-4-ylmethyl-isonicotinamide], the Ki was 1.58 nM.

Consider `CNCc1cc(C(=O)Nc2nc3c(OC)ccc(N4CCOCC4)c3s2)ccn1` [Example 58, N-(4-Methoxy-7-morpholin-4-yl-benzothiazol-2-yl)-2-methylaminomethyl-isonicotinamide], for which the Ki is 2 nM.

In the case of `COc1ccc(N2CCOCC2)c2sc(NC(=O)c3ccnc(CNCCCC(=O)OC(C)(C)C)c3)nc12` [Example 62, 4-{[4-(4-Methoxy-7-morpholin-4-yl-benzothiazol-2-yl-carbamoyl)-pyridin-2-yl-methyl]-amino}-butyric Acid tert-Butyl Ester], the Ki was 1.58 nM.

Regarding `COC(=O)N(C)Cc1cc(C(=O)Nc2nc3c(OC)ccc(N4CCOCC4)c3s2)ccn1` [Example 65, [4-(4-Methoxy-7-morpholin-4-yl-benzothiazol-2-yl-carbamoyl)-pyridin-2-ylmethyl]-methyl-carbamic Acid Methyl Ester], the Ki was 3.16 nM.

As to `COc1ccc(N2CCOCC2)c2sc(NC(=O)c3ccnc(N4CCS(=O)(=O)CC4)c3)nc12` [Example 73, 2-(1,1-Dioxo-1l6-thiomorpholin-4-yl)-N-(4-methoxy-7-morpholin-4-yl-benzothiazol-2-yl)-isonicotinamide], the Ki was 1.82 nM.

On to `COc1ccc(N2CCOCC2)c2sc(NC(=O)c3ccnc(N4CC(O)C4)c3)nc12` [Example 74, 2-(3-Hydroxy-azetidin-1-yl)-N-(4-methoxy-7-morpholin-4-yl-benzothiazol-2-yl)-isonicotinamide], for which the Ki was 1.35 nM.

`COc1ccc(N2CCOCC2)c2sc(NC(=O)c3ccnc(N4CC(OC)C4)c3)nc12` [Example 75, 2-(3-Methoxy-azetidin-1-yl)-N-(4-methoxy-7-morpholin-4-yl-benzothiazol-2-yl)-isonicotinamide]: the Ki is 1.91 nM.

Consider `CCOC1CN(c2cc(C(=O)Nc3nc4c(OC)ccc(N5CCOCC5)c4s3)ccn2)C1` [Example 76, 2-(3-Ethoxy-azetidin-1-yl)-N-(4-methoxy-7-morpholin-4-yl-benzothiazol-2-yl)-isonicotinamide], for which the Ki was 1.74 nM.

For the molecule `COc1ccc(N2CCOCC2)c2sc(NC(=O)c3ccnc(OC(C)C)c3)nc12` [Example 77, 2-Isopropoxy-N-(4-methoxy-7-morpholin-4-yl-benzothiazol-2-yl)-isonicotinamide], the Ki was 2.88 nM.

For the molecule `COc1ccc(N2CCOCC2)c2sc(NC(=O)c3ccnc(SC)c3)nc12` [Example 80, N-(4-Methoxy-7-morpholin-4-yl-benzothiazol-2-yl)-2-methylsulfanyl-isonicotinamide], the Ki was 2.09 nM.

Consider `CCSc1cc(C(=O)Nc2nc3c(OC)ccc(N4CCOCC4)c3s2)ccn1` [Example 81, 2-Ethylsulfanyl-N-(4-methoxy-7-morpholin-4-yl-benzothiazol-2-yl)-isonicotinamide], for which the Ki is 2.4 nM.

Take `COc1ccc(N2CCOCC2)c2sc(NC(=O)c3ccnc(NCc4ccccc4)c3)nc12` [Example 83, 2-Benzylamino-N-(4-methoxy-7-morpholin-4-yl-benzothiazol-2-yl)-isonicotinamide]: the Ki is 1.74 nM.
